# Data as given in patent publication US20030129677A1, “Diagnostic method for screening complement regulatory protein levels” (priority 2000, published 2003).
# Tested on: DAF (CD55) on MCF-7 breast cancer cells
# Test: TNF-α modulation of DAF (CD55) on MCF-7 breast cancer cells (western blot, densitometry)
# Type: cell-based
# Conditions: MCF-7 cells, different concentrations of recombinant TNF-α for 18 hours
# Protocol: Estrogen primed and unprimed MCF-7 cells were treated with different concentrations of recombinant TNF-α for 18 hours. Estrogen primed cells were treated overnight with 20 ng/ml β estradiol. DAF protein was extracted by lysis treatment of cells and quantitated, run on SDS-PAGE followed by western blot analysis using anti DAF antibody. Bands were visualized by ECL method (Amersham). DAF levels were quantitated densitometrically and expressed as densitometric units.
substance,measurement,setting,value
TNF-α,DAF (CD55) expression,"estrogenized conditions (primed overnight with 20 ng/ml β estradiol), FIG. 5",upregulated CD55 in a dose dependent manner
same,DAF (CD55) expression,nonestrogenized conditions,downregulated expression of CD55 in a dose dependent manner
